What was measured:
Format in all cases: in vivo
[1] = tested on: common wind-grass; assay: Test Example 3: weedkilling efficacy through soil treatment; J: common wind-grass; conditions: soil treatment
Outline: (§1)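 Crop and weed responses were judged three weeks after a uniform surface spray of the water-diluted emulsion at the given g/ha rate. Seeds sat beneath about 1.5 cm of sterilized diluvial soil, and boxes stood in a greenhouse at 25 to 30° C.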

[2] = tested on: green foxtail; assay: Test Example 3: weedkilling efficacy through soil treatment; E: green foxtail; conditions: soil treatment
Outline: as §1

[3] = tested on: corn; assay: Test Example 3: soil treatment, effect on crop; c: corn; conditions: soil treatment
Outline: as §1

[4] = tested on: transplanted rice; assay: Test Example 1: preemergent weed treatment in the submerged state, effect on crop; a: transplanted rice
Outline: (§2)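 Alluvial soil in Wagner pots flooded to 4 cm; barnyard grass, bulrush and oval-leafed pondweed seeds sown, then 2.5-leaf rice seedlings transplanted. Same day, emulsified compound diluted in water to set g/ha dosages and applied to water surface; greenhouse 25–30 °C, effect scored by criteria after 3 weeks.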

[5] = tested on: chickweed; assay: Test Example 3: weedkilling efficacy through soil treatment; N: chickweed; conditions: soil treatment
Outline: as §1

[6] = tested on: wheat; assay: Test Example 3: soil treatment, effect on crop; e: wheat; conditions: soil treatment
Outline: as §1

[7] = tested on: beet; assay: Test Example 3: soil treatment, effect on crop; f: beet; conditions: soil treatment
Outline: as §1

[8] = tested on: directly sown rice; assay: Test Example 3: soil treatment, effect on crop; b: directly sown rice; conditions: soil treatment
Outline: as §1

[9] = tested on: oval-leafed pondweed; assay: Test Example 2: weedkilling efficacy, growth period weed treatment in the submerged state; C: oval-leafed pondweed
Outline: (§3)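 First, alluvial soil in pots is flooded to 4 cm and mixed seed is sown. Next, plants grow in a greenhouse at 25 to 30° C until the 1-2 leaf stage. Then diluted emulsion is applied onto the water surface at the given g/ha rate, and injury is assessed after 3 weeks.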

[10] = tested on: black-grass; assay: Test Example 3: weedkilling efficacy through soil treatment; H: black-grass; conditions: soil treatment
Outline: as §1

[11] = tested on: wild oat; assay: Test Example 3: weedkilling efficacy through soil treatment; G: wild oat; conditions: soil treatment
Outline: as §1

[12] = tested on: soybean; assay: Test Example 3: soil treatment, effect on crop; d: soybean; conditions: soil treatment
Outline: as §1

[13] = tested on: bulrush; assay: Test Example 2: weedkilling efficacy, growth period weed treatment in the submerged state; B: bulrush
Outline: as §3

[14] = tested on: rapeseed; assay: Test Example 3: soil treatment, effect on crop; g: rapeseed; conditions: soil treatment
Outline: as §1

[15] = tested on: birds-eye speedwell; assay: Test Example 3: weedkilling efficacy through soil treatment; p: birds-eye speedwell; conditions: soil treatment
Outline: as §1

[16] = tested on: barnyard grass; assay: Test Example 1: weedkilling efficacy, preemergent weed treatment in the submerged state; A: barnyard grass
Outline: as §2

[17] = tested on: Italian ryegrass; assay: Test Example 3: weedkilling efficacy through soil treatment; I: Italian ryegrass; conditions: soil treatment
Outline: as §1

[18] = tested on: barnyard grass; assay: Test Example 2: weedkilling efficacy, growth period weed treatment in the submerged state; A: barnyard grass
Outline: as §3

[19] = tested on: redroot pigweed; assay: Test Example 3: weedkilling efficacy through soil treatment; L: redroot pigweed; conditions: soil treatment
Outline: as §1

[20] = tested on: Indian mallow; assay: Test Example 3: weedkilling efficacy through soil treatment; K: Indian mallow; conditions: soil treatment
Outline: as §1

[21] = tested on: fig-leafed goosefoot; assay: Test Example 3: weedkilling efficacy through soil treatment; M: fig-leafed goosefoot; conditions: soil treatment, treatment dosage 320 g/ha
Outline: as §1

[22] = tested on: oval-leafed pondweed; assay: Test Example 1: weedkilling efficacy, preemergent weed treatment in the submerged state; C: oval-leafed pondweed
Outline: as §2

[23] = tested on: catchweed; assay: Test Example 3: weedkilling efficacy through soil treatment; O: catchweed; conditions: soil treatment
Outline: as §1

[24] = tested on: barnyard grass; assay: Test Example 3: weedkilling efficacy through soil treatment; F: barnyard grass; conditions: soil treatment
Outline: as §1

[25] = tested on: bulrush; assay: Test Example 1: weedkilling efficacy, preemergent weed treatment in the submerged state; B: bulrush
Outline: as §2

[26] = tested on: crabgrass; assay: Test Example 3: weedkilling efficacy through soil treatment; D: crabgrass; conditions: soil treatment
Outline: as §1

CC(C)(C(=O)Nc1nncs1)N1COCN(c2ccccc2)C1=O [A-1-12]
J: common wind-grass, weedkilling efficacy grade ([1]; treatment dosage 320 g/ha): 5 (weed kill ratio 90% or more, (practically complete withering))
E: green foxtail, weedkilling efficacy grade ([2]; treatment dosage 320 g/ha): 5 (weed kill ratio 90% or more, (practically complete withering))
c: corn, effect on crop grade ([3]; treatment dosage 320 g/ha): 0 (weed kill ratio 5% or less (practically no effect))
a: transplanted rice, effect on crop grade ([4]; treatment dosage 320 g/ha): 0 (weed kill ratio 5% or less (practically no effect))
N: chickweed, weedkilling efficacy grade ([5]; treatment dosage 320 g/ha): 3 (weed kill ratio 40% or more, less than 70%)
e: wheat, effect on crop grade ([6]; treatment dosage 320 g/ha): 0 (weed kill ratio 5% or less (practically no effect))
f: beet, effect on crop grade ([7]; treatment dosage 320 g/ha): 2 (weed kill ratio 20% or more, less than 40%)
b: directly sown rice, effect on crop grade ([8]; treatment dosage 320 g/ha): 5 (weed kill ratio 90% or more, (practically complete withering))
C (oval-leafed pondweed) weedkilling efficacy grade ([9]; treatment dosage 320 g/ha): 3 (weed kill ratio 40% or more, less than 70%)
H: black-grass, weedkilling efficacy grade ([10]; treatment dosage 320 g/ha): 5 (weed kill ratio 90% or more, (practically complete withering))
G: wild oat, weedkilling efficacy grade ([11]; treatment dosage 320 g/ha): 3 (weed kill ratio 40% or more, less than 70%)
d: soybean, effect on crop grade ([12]; treatment dosage 320 g/ha): 4 (weed kill ratio 70% or more, less than 90%)
B (bulrush) weedkilling efficacy grade ([13]; treatment dosage 320 g/ha): 5 (weed kill ratio 90% or more, (practically complete withering))
g: rapeseed, effect on crop grade ([14]; treatment dosage 320 g/ha): 0 (weed kill ratio 5% or less (practically no effect))
P: birds-eye speedwell, weedkilling efficacy grade ([15]; treatment dosage 320 g/ha): 3 (weed kill ratio 40% or more, less than 70%)
A: barnyard grass, weed kill grade ([16]; treatment dosage 320 g/ha): 5 (weed kill ratio 90% or more, (practically complete withering))
I: Italian ryegrass, weedkilling efficacy grade ([17]; treatment dosage 320 g/ha): 5 (weed kill ratio 90% or more, (practically complete withering))
A (barnyard grass) weedkilling efficacy grade ([18]; treatment dosage 320 g/ha): 1 (weed kill ratio 5% or more, less than 20%)
L: redroot pigweed, weedkilling efficacy grade ([19]; treatment dosage 320 g/ha): 0 (weed kill ratio 5% or less (practically no effect))
K: Indian mallow, weedkilling efficacy grade ([20]; treatment dosage 320 g/ha): 0 (weed kill ratio 5% or less (practically no effect))
M: fig-leafed goosefoot, weedkilling efficacy grade [21]: 4 (weed kill ratio 70% or more, less than 90%)
C: oval-leafed pondweed, weed kill grade ([22]; treatment dosage 320 g/ha): 4 (weed kill ratio 70% or more, less than 90%)
O: catchweed, weedkilling efficacy grade ([23]; treatment dosage 320 g/ha): 0 (weed kill ratio 5% or less (practically no effect))
F: barnyard grass, weedkilling efficacy grade ([24]; treatment dosage 320 g/ha): 3 (weed kill ratio 40% or more, less than 70%)
B: bulrush, weed kill grade ([25]; treatment dosage 320 g/ha): 5 (weed kill ratio 90% or more, (practically complete withering))

CC(C)(C(=O)Nc1cc(Br)cc(F)n1)N1COCN(c2ccccc2)C1=O [A-2-19]
J: common wind-grass, weedkilling efficacy grade ([1]; treatment dosage 320 g/ha): 5 (weed kill ratio 90% or more, (practically complete withering))
E: green foxtail, weedkilling efficacy grade ([2]; treatment dosage 320 g/ha): 5 (weed kill ratio 90% or more, (practically complete withering))
c: corn, effect on crop grade ([3]; treatment dosage 320 g/ha): 2 (weed kill ratio 20% or more, less than 40%)
a: transplanted rice, effect on crop grade ([4]; treatment dosage 320 g/ha): 3 (weed kill ratio 40% or more, less than 70%)
N: chickweed, weedkilling efficacy grade ([5]; treatment dosage 320 g/ha): 5 (weed kill ratio 90% or more, (practically complete withering))
e: wheat, effect on crop grade ([6]; treatment dosage 320 g/ha): 2 (weed kill ratio 20% or more, less than 40%)
f: beet, effect on crop grade ([7]; treatment dosage 320 g/ha): 4 (weed kill ratio 70% or more, less than 90%)
b: directly sown rice, effect on crop grade ([8]; treatment dosage 320 g/ha): 0 (weed kill ratio 5% or less (practically no effect))
C (oval-leafed pondweed) weedkilling efficacy grade ([9]; treatment dosage 320 g/ha): 5 (weed kill ratio 90% or more, (practically complete withering))
H: black-grass, weedkilling efficacy grade ([10]; treatment dosage 320 g/ha): 5 (weed kill ratio 90% or more, (practically complete withering))
G: wild oat, weedkilling efficacy grade ([11]; treatment dosage 320 g/ha): 5 (weed kill ratio 90% or more, (practically complete withering))
B (bulrush) weedkilling efficacy grade ([13]; treatment dosage 320 g/ha): 5 (weed kill ratio 90% or more, (practically complete withering))
g: rapeseed, effect on crop grade ([14]; treatment dosage 320 g/ha): 5 (weed kill ratio 90% or more, (practically complete withering))
P: birds-eye speedwell, weedkilling efficacy grade ([15]; treatment dosage 320 g/ha): 4 (weed kill ratio 70% or more, less than 90%)
D: crabgrass, weedkilling efficacy grade ([26]; treatment dosage 320 g/ha): 5 (weed kill ratio 90% or more, (practically complete withering))
A: barnyard grass, weed kill grade ([16]; treatment dosage 320 g/ha): 5 (weed kill ratio 90% or more, (practically complete withering))
I: Italian ryegrass, weedkilling efficacy grade ([17]; treatment dosage 320 g/ha): 5 (weed kill ratio 90% or more, (practically complete withering))
A (barnyard grass) weedkilling efficacy grade ([18]; treatment dosage 320 g/ha): 5 (weed kill ratio 90% or more, (practically complete withering))
L: redroot pigweed, weedkilling efficacy grade ([19]; treatment dosage 320 g/ha): 0 (weed kill ratio 5% or less (practically no effect))
K: Indian mallow, weedkilling efficacy grade ([20]; treatment dosage 320 g/ha): 0 (weed kill ratio 5% or less (practically no effect))
M: fig-leafed goosefoot, weedkilling efficacy grade [21]: 4 (weed kill ratio 70% or more, less than 90%)
C: oval-leafed pondweed, weed kill grade ([22]; treatment dosage 320 g/ha): 5 (weed kill ratio 90% or more, (practically complete withering))
O: catchweed, weedkilling efficacy grade ([23]; treatment dosage 320 g/ha): 4 (weed kill ratio 70% or more, less than 90%)
F: barnyard grass, weedkilling efficacy grade ([24]; treatment dosage 320 g/ha): 5 (weed kill ratio 90% or more, (practically complete withering))
B: bulrush, weed kill grade ([25]; treatment dosage 320 g/ha): 5 (weed kill ratio 90% or more, (practically complete withering))

CC(C)(C(=O)Nc1cccc(CF)n1)N1COCN(c2ccccc2)C1=O [A-2-39]
J: common wind-grass, weedkilling efficacy grade ([1]; treatment dosage 315 g/ha): 5 (weed kill ratio 90% or more, (practically complete withering))
E: green foxtail, weedkilling efficacy grade ([2]; treatment dosage 315 g/ha): 5 (weed kill ratio 90% or more, (practically complete withering))
c: corn, effect on crop grade ([3]; treatment dosage 315 g/ha): 0 (weed kill ratio 5% or less (practically no effect))
a: transplanted rice, effect on crop grade ([4]; treatment dosage 315 g/ha): 1 (weed kill ratio 5% or more, less than 20%)
N: chickweed, weedkilling efficacy grade ([5]; treatment dosage 315 g/ha): 2 (weed kill ratio 20% or more, less than 40%)
e: wheat, effect on crop grade ([6]; treatment dosage 315 g/ha): 1 (weed kill ratio 5% or more, less than 20%)
f: beet, effect on crop grade ([7]; treatment dosage 315 g/ha): 3 (weed kill ratio 40% or more, less than 70%)
b: directly sown rice, effect on crop grade ([8]; treatment dosage 315 g/ha): 4 (weed kill ratio 70% or more, less than 90%)
C (oval-leafed pondweed) weedkilling efficacy grade ([9]; treatment dosage 315 g/ha): 4 (weed kill ratio 70% or more, less than 90%)
H: black-grass, weedkilling efficacy grade ([10]; treatment dosage 315 g/ha): 5 (weed kill ratio 90% or more, (practically complete withering))
G: wild oat, weedkilling efficacy grade ([11]; treatment dosage 315 g/ha): 4 (weed kill ratio 70% or more, less than 90%)
d: soybean, effect on crop grade ([12]; treatment dosage 315 g/ha): 0 (weed kill ratio 5% or less (practically no effect))
B (bulrush) weedkilling efficacy grade ([13]; treatment dosage 315 g/ha): 5 (weed kill ratio 90% or more, (practically complete withering))
g: rapeseed, effect on crop grade ([14]; treatment dosage 315 g/ha): 2 (weed kill ratio 20% or more, less than 40%)
P: birds-eye speedwell, weedkilling efficacy grade ([15]; treatment dosage 315 g/ha): 5 (weed kill ratio 90% or more, (practically complete withering))
D: crabgrass, weedkilling efficacy grade ([26]; treatment dosage 315 g/ha): 5 (weed kill ratio 90% or more, (practically complete withering))
A: barnyard grass, weed kill grade ([16]; treatment dosage 315 g/ha): 5 (weed kill ratio 90% or more, (practically complete withering))
I: Italian ryegrass, weedkilling efficacy grade ([17]; treatment dosage 315 g/ha): 5 (weed kill ratio 90% or more, (practically complete withering))
A (barnyard grass) weedkilling efficacy grade ([18]; treatment dosage 315 g/ha): 4 (weed kill ratio 70% or more, less than 90%)
L: redroot pigweed, weedkilling efficacy grade ([19]; treatment dosage 315 g/ha): 0 (weed kill ratio 5% or less (practically no effect))
K: Indian mallow, weedkilling efficacy grade ([20]; treatment dosage 315 g/ha): 0 (weed kill ratio 5% or less (practically no effect))
C: oval-leafed pondweed, weed kill grade ([22]; treatment dosage 315 g/ha): 5 (weed kill ratio 90% or more, (practically complete withering))
O: catchweed, weedkilling efficacy grade ([23]; treatment dosage 315 g/ha): 5 (weed kill ratio 90% or more, (practically complete withering))
F: barnyard grass, weedkilling efficacy grade ([24]; treatment dosage 315 g/ha): 5 (weed kill ratio 90% or more, (practically complete withering))
B: bulrush, weed kill grade ([25]; treatment dosage 315 g/ha): 5 (weed kill ratio 90% or more, (practically complete withering))

Reference: patent publication US9738634B2, “Heterocyclic amide compound and herbicide” (SYNGENTA PARTICIPATIONS AG, priority 2013, dated 2017)
